# Results from patent US20250069757A1, “METHOD OF PREDICTING ADAS-COG SCORE” (WisTa Laboratories Ltd., priority 2021, published 2025).
# Experiments:
# [1] = tested on: Alzheimer's disease; experiment: phase III clinical trials (TRx-237-005 and TRx-237-015) for Alzheimer's disease; format: in vivo, patients; details: 8, 150, 200 or 250 mg/day; both trials
# Description: Data from a phase III clinical trials (TRx-237-005 and TRx-237-015) for Alzheimer's disease was obtained. These clinical trials involved 1162 patients. Before the trials began, each patient's baseline measurements were collected, which included the patient's sex, age, baseline ADAS-Cog and mini-mental state examination (MMSE) score.
# Patients were subsequently categorised into those with ‘low’ and ‘high’ plasma levels using a threshold based on the lower limit of quantitation of the assay on Day 1. […] Additionally, each patient entered the trial either already using the standard care of therapy or not. This yielded D=4 possible combinations: “low-using”, “low-none”, “high-using” and “high-none”. The trial spanned 5 visits with 13 weeks in between each visit. At each visit t, every patient i's progressive ADAS-Cog score, Yti∈ ? , was measured and recorded.
# [2] = tested on: Alzheimer's disease; details: cited from earlier work
# [3] = group with 'high' plasma levels, threshold based on lower limit of quantitation of the assay on Day 1
smiles,measurement,setting,value
CN(C)c1ccc2c(c1)Sc1cc(N(C)C)ccc1N2.CS(=O)(=O)O.CS(=O)(=O)O [LMTM],dose-response,[1],lack of dose-response
same,concentration-response relationships for steady-state plasma levels,[2]; 8 mg/day range,steep concentration-response relationships
same,differences in brain atrophy,[2]; [3],highly significant differences
same,differences in cognitive decline,[2]; [3],highly significant differences
